The structures appear in SMILES notation.

In patent US6355633B1, “Aryl sulfonic acids and derivatives as FSH antagonists” (American Home Products Corporation, priority 1999, dated 2002) one finds IC50 data, which are given here for nine molecules.

This test deals with T1, FSH receptor (Rattus norvegicus, UniProt P20395).
T1 construct: endogenous in cells; host or cells: primary ovarian granulosa cells of DES-treated immature Sprague-Dawley rats
T1 sequence (P20395 18-692): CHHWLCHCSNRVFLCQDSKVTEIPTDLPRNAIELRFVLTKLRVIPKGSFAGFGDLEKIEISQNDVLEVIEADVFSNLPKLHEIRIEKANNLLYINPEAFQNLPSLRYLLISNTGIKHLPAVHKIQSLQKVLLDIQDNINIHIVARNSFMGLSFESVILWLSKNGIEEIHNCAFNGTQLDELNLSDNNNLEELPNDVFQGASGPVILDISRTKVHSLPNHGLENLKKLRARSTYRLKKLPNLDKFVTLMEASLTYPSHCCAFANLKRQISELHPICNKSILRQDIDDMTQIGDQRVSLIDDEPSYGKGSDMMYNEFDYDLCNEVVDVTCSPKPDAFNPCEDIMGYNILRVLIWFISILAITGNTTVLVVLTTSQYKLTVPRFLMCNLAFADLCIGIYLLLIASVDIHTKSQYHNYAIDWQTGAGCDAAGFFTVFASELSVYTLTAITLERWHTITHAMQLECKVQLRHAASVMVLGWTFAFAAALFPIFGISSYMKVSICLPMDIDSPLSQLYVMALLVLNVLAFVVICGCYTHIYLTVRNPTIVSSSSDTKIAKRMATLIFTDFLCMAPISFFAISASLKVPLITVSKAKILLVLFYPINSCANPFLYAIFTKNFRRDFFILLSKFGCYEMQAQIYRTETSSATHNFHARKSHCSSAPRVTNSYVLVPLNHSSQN
Nature of the test: In Vitro Bio-test Procedure of Agonists and Antagonists to the FSH Receptor Using Primary Cultures of Rat Granulosa (estradiol secretion). The format is cell-based. Here is the method:
In Vitro Bio-test Procedure of Agonists and Antagonists to the FSH Receptor Using Primary Cultures of Rat Granulosa
Materials and Methods: Reagents
The concentration of vehicle was maintained constant throughout all dilutions.
Preparation of Granulosa Cells: Twenty-four day-old immature female Sprague-Dawley rats (Charles River Laboratories, Wilmington, Mass.) were used as donors for ovarian granulosa cells. The animals were treated by single daily injections of 100 mg/kg diethylstilbestrol (DES) in oil over three days. On the fourth day, animals were sacrificed by CO2 asphyxiation and the ovaries were removed. Ovaries were washed three times in 50 mL of sterile HEPES-buffered saline (HBS, pH 7.4). Granulosa cells were harvested by incubating ovaries in a hypertonic medium consisting of serum-free McCoy*s SA medium (Gibco Life Sciences, Grand Island, N.Y.) supplemented with […], […], 5 ng/mL sodium selenite (ITS, Sigma Chemical Co., St. Louis Mo.), […] L-glutamine, 100 nM testosterone, 100 nM DES and 100 U/mL penicillin/[…]/250 ng/mL amphotericin B (antibiotic/antimycotic, Gibco) containing 0.5 M sucrose and 0.1 mM EGTA. Ovaries were then incubated for 45 min. at 37 C. in a humidified incubator gassed with 95% air/5% CO2. They were washed 3 times with 10 mL isotonic medium (hypertonic medium without sucrose and EGTA) and incubated another 45 min. in isotonic medium at 37 C. Granulosa cells were harvested by squeezing the ovaries between two sterile glass microscope slides. Isolated granulosa cells were then placed in an 50 mL centrifuge tube and washed two times by the addition of 50 mL serum-free McCoy*s 5A medium followed by centrifugation at 700×g for 5 min. After the final spin, the cells were resuspended by gentle trituration in 25 mL serum-free medium, an aliquot counted in a hemocytometer and viability estimated by trypan blue exclusion. Cells were plated into 24-well Nunc tissue culture plates at 200,000 viable cells/well in […].
Procedure: Following plating of the cells, the plates are incubated at 37 C for 2-4 hours at which time the treatments are added to the cells. Treatments are added to the wells at 2× the desired final concentration in […] in isotonic medium containing 0.2% BSA. The cells are incubated at 37 C. for 72 h. At the end of the incubation period, the medium is removed from the wells and tested for estradiol concentration by radioimmunoassay.
Experimental Groups: In the 24-well format, the plate was divided into 6 columns of 4 wells/column. One plate per compound was used to test either agonist or antagonist modes. […]
Four different doses of compound were tested in the antagonist mode. In addition, one column was used for a negative control (vehicle alone) and the other remaining column for a positive control (ED50 of FSH alone).
The doses of compound chosen to test were extrapolated from the initial functional screening process. Along with the plates testing compounds, another plate was run in parallel using a dose-response of FSH (0.01-100 ng/mL) as a positive control.
Analysis of Results: Estradiol was expressed as pg/mL. Estradiol secretion in agonist mode, or the ability of the compound to inhibit FSH-induced estradiol secretion in antagonist, was compared to the appropriate negative and positive controls. Data were analyzed statistically by analysis of variance with Huber weighting of log transformed data. Paired differences were determined using the LSD test
Reference Compounds: Test compounds were compared to the effect of purified or recombinant human FSH.
One may read the IC50 as the concentration that inhibits the measured activity by half. In turn, `COc1ccc(C(=O)Nc2ccc(CCc3ccc(NC(=O)c4ccc(S(C)(=O)=O)cc4)cc3S(=O)(=O)O)c(S(=O)(=O)O)c2)cc1S(=O)(=O)N1CCOCC1` [Example 43a, 5-[[4-Methoxy-3-(4-morpholinylsulfonyl)benzoyl]amino]-2-[2-[4-[[4-(methylsulfonyl)benzoyl]amino]-2-sulfophenyl]ethyl]benzenesulfonic Acid] registered an IC50 of 17000 nM. This counts as double-digit micromolar.

Molecule `COc1ccc(C(=O)Nc2ccc(/C=C/c3ccc(NC(=O)c4ccc(OC)c(S(=O)(=O)N5CCN(C(C)=O)CC5)c4)cc3S(=O)(=O)O)c(S(=O)(=O)O)c2)cc1S(=O)(=O)N1CCN(C(C)=O)CC1` [Example 34a, 2,2′-[(E)-1,2-Ethenediyl]bis[5-[[3-[(4-acetyl-1-piperazinyl)sulfonyl]-4-methoxybenzoyl]amino]benzenesulfonic Acid]] returned an IC50 of 57000 nM.

As for `CSc1ccc(C(=O)Nc2ccc(/C=C/c3ccc(NC(=O)c4ccc(S(C)(=O)=O)c([N+](=O)[O-])c4)cc3S(=O)(=O)O)c(S(=O)(=O)O)c2)cc1S(=O)(=O)N1CCOCC1` [Example 30e], the IC50 was found to be 1800 nM.

`CS(=O)(=O)c1ccc(C(=O)Nc2ccc(/C=C/c3ccc(NC(=O)c4ccc(S(C)(=O)=O)cc4)cc3S(=O)(=O)O)c(S(=O)(=O)O)c2)cc1` [Example 30q, 2,2′-[(E)-1,2-Ethenediyl]bis[5-[[4-(methylsulfonyl)benzoyl]amino]benzenesulfonic Acid]] showed an IC50 of 1300 nM.

Regarding `CS(=O)(=O)c1ccc(C(=O)Nc2ccc(/C=C/c3ccc(NC(=O)c4ccc(S(C)(=O)=O)c(S(=O)(=O)N5CCOCC5)c4)cc3S(=O)(=O)O)c(S(=O)(=O)O)c2)cc1S(=O)(=O)N1CCOCC1` [Example 30d, 2,2′-[(E)-1,2-Ethenediyl]bis[5-[[4-(methylsulfonyl)-3-(4-morpholinylsulfonyl)benzoyl]amino]benzenesulfonic Acid]], the half-inhibitory concentration (IC50) was determined as 2800 nM.

In turn, `COCCOc1ccc(C(=O)Nc2ccc(/C=C/c3ccc(NC(=O)c4ccc(OCCOC)c(S(=O)(=O)N5CCOCC5)c4)cc3S(=O)(=O)O)c(S(=O)(=O)O)c2)cc1S(=O)(=O)N1CCOCC1` [Example 30t, 2,2′-[(E)-1,2-Ethenediyl]bis[5-[[4-(2-methoxyethoxy)-3-(4-morpholinylsulfony)benzoyl]amino]benzenesulfonic Acid]] had an IC50 of 1400 nM. This IC50 is about 2-fold lower than that of the molecule before.

For the molecule `COCCNS(=O)(=O)c1cc(C(=O)Nc2ccc(/C=C/c3ccc(NC(=O)c4ccc(S(C)(=O)=O)c([N+](=O)[O-])c4)cc3S(=O)(=O)O)c(S(=O)(=O)O)c2)ccc1OC` [Example 30f], the IC50 stood at 8000 nM.

`COc1ccc(C(=O)Nc2ccc(/C=C/c3ccc(NC(=O)c4ccc(OC)c(S(=O)(=O)N5CCSCC5)c4)cc3S(=O)(=O)O)c(S(=O)(=O)O)c2)cc1S(=O)(=O)N1CCSCC1` [Example 33d, 2,2′-[(E)-1,2-Ethenediyl]bis[5-[[4-methoxy-3-(4-thiomorpholinylsulfonyl)benzoyl]amino]benzenesulfonic Acid]] showed an IC50 of 10000 nM.

`CCS(=O)(=O)c1ccc(C(=O)Nc2ccc(/C=C/c3ccc(NC(=O)c4ccc(S(=O)(=O)CC)cc4)cc3S(=O)(=O)O)c(S(=O)(=O)O)c2)cc1` [Example 32f, 2,2′-[(E)-1,2-Ethenediyl]bis[5-[[4-(ethylsulfonyl)benzoyl]amino]benzenesulfonic Acid]] displayed an IC50 of 2800 nM.
